Legend:
[1] = Tissue distribution of 5-halothiophene-2-isopropylamines in Fisher rats (brain uptake and brain:blood); type: in vivo; details: for tissue uptake at 5 min / tissue uptake at 0.5 h / tissue uptake at 1 h: rat, brain, read-out: Mean Brain, % Dose/gm
Excerpt: TISSUE DISTRIBUTION OF 5-HALOTHIOPHENE-
Mean Brain, % Dose/gm (Mean Brain:Blood)

[2] = IMP versus HIPDM, cited from earlier work

SMILES | brain uptake and retention (in words) [1] | Mean Brain:Blood ([1]; 5 min) | Mean Brain:Blood ([1]; 30 min) | Mean Brain:Blood ([1]; 60 min) | tissue uptake at 5 min ([1]; 5 min) | tissue uptake at 0.5 h ([1]; 30 min) | tissue uptake at 1 h ([1]; 60 min) | brain-to-blood ratios (in words) [1] | lung clearance relative to HIPDM [2] | amount of activity in the brain relative to HIPDM ([2]; five minutes after administration)
CC(N)Cc1ccc([82Br])s1 (centres unmarked) [Br--82] | good brain uptake and retention | 10.4 | 4.1 | 2.2 | 2.7 %ID/g | 2.3 %ID/g | 1.67 %ID/g |  |  | 
CC(N)Cc1ccc([125I])s1 (centres unmarked) [I--125] | high brain uptake and good retention | 6.0 | 3.7 | 2.1 | 2.77 %ID/g | 2.51 %ID/g | 1.42 %ID/g | high brain-to-blood ratios |  | 
CC(C)NC(C)Cc1ccc(I)cc1 (centres unmarked) [IMP, N-isopropyl-p-iodoamphetamine] |  |  |  |  |  |  |  |  | clears the lungs faster | almost twice the amount of activity in the brain
